# Patent US10450573B2, “Compositions and methods for regulation of gene expression with, and detection of, folinic acid and folates” (The Board of Trustees of the Leland Stanford Junior …, priority 2014, dated 2019)
# B1: L2b8: parent theophylline-responsive ribozyme switch, SEQ ID NO: 43 (nucleic acid)
# chain: AAACAAACAAAGCTGTCACCGGATGTGCTTTCCGGTCTGATGAGTCCGTTGTCCATACCAGCATCGTCTTGATGCCCTTGGCAGGGACGGGACGGAGGACGAAACAGCAAAAAGAAAAATAAAAA
# modifications: listed as DNA, chemistry not fully specified
# B2: tFA8-18: truncated (6S)-FA specific RNA aptamer, SEQ ID NO: 23 (nucleic acid)
# chain: CUCGUCAAUGCAUAUGUAACGUUAACGGCGCUACCUGUACAAUGCACGUUCCGAGCGCCCGGAGACGAG
# modifications: unmodified RNA
# Tests used:
# [1] = cited from earlier work; for concentration that can accumulate in human blood plasma: intravenous infusion
# [2] = Surface plasmon resonance aptamer binding assay, (6R)-folinic acid; settings: for ka, (6R)-Folinic Acid / kd, (6R)-Folinic Acid / Kd: SPR, 25° C., selection buffer pH 7.4, 5 mM MgCl2; for ka, (6R)-Folinic Acid / kd, (6R)-Folinic Acid: 1:1 binding model; for Selectivity: between (6R)- and (6S)-folinic acid diastereomers
# Procedure: (§1) Surface plasmon resonance characterization of aptamer binding properties. Nucleic acid aptamer preparation. RNA aptamers were prepared by PCR amplification of DNA template sequences (Table 4, Integrated DNA Technologies, Coralville, Iowa) using forward and reverse primers Biacore-fwd and Biacore-rev, respectively, followed by transcription of the PCR product using the MEGAshortscript T7 transcription kit (Life Technologies) and purification of the transcription product using the RNA Clean & Concentrator kit (Zymo Research, Irvine, Calif.), according to the manufacturers' instructions. Aptamers were resuspended in selection buffer, denatured at 65° C. for 5 min, and cooled to room temperature directly before use.
# (§2) Sensor chip surface generation. Experiments were performed on a Biacore X100 instrument (GE Healthcare) at 25° C. A CM5 sensor chip (GE Healthcare) was equilibrated with HBS-N buffer. The DNA linker strand (5′-AmMC6-[…]) (Integrated DNA Technologies) (SEQ ID NO:133), with an amino modified 6-carbon linker on the 5′ end, was immobilized to the chip surface. The carboxymethylated dextran surface of the CM5 chip was activated for 7 min at a flow rate of 10 μL/min using a 1:1 volume ratio of 0.4 M 1-ethyl-3-(3-dimethylaminopropyl) carbodiimide (GE Healthcare) and 0.1 M N-hydroxysuccinimide (GE Healthcare). A molar ratio of 1:30 of DNA strand to hexadecyltrimethylammonium bromide (Sigma-Aldrich, St. Louis, Mo.) was diluted in 10 mM HEPES buffer (Sigma-Aldrich) to a final concentration of 20 μM and 0.6 mM, respectively, and injected over the activated surface for 10 min at a flow rate of 5 μL/min. Excess activated groups were blocked by an injection of 1 M ethanolamine (GE Healthcare), pH 8.5, for 7 min at a flow rate of 10 μL/min. The immobilization reaction was performed sequentially on both flow cells (FC1, FC2) and yielded approximately 4,000 RU of the DNA strand.
# (§3) Aptamer binding assay. The Biacore X100 instrument was primed three times with running buffer prior to all binding assays. For each assay, three startup cycles were performed to stabilize the sensorgram baseline. For each startup cycle, the aptamer (˜40-70 ng/μL, ˜3 μM) was captured onto the sample flow cell (FC2) for 40 s at a flow rate of 5 μL/min. 25 mM NaOH (GE Healthcare) was injected for 30 s at a flow rate of 30 μL/min over both flow cells to regenerate the sensor surface. A dilution series of (6R)- or (6S)-folinic acid (Schircks Laboratories, Jona, Switzerland) was prepared in selection buffer and filtered through a 0.2 μm membrane (Pall Corporation, Port Washington, N.Y.). For each concentration sample, the aptamer was captured onto the sample flow cell (FC2) for 40 s at a flow rate of 5 μL/min, the folinic acid solution was injected over both flow cells at a flow rate of 30 μL/min to monitor target association, and selection buffer was injected over both flow cells at a flow rate of 30 μL/min to monitor target dissociation. Association and dissociation phase lengths used were chosen based on time needed to reach equilibrium. Aptamer and folinic acid were removed from the sensor surface by injecting 25 mM NaOH for 30 s at a flow rate of 30 μL/min over both flow cells.
# (§4) Data processing and analysis were performed using Biacore X100 Evaluation Software version 2.0 (GE Healthcare). A double-referencing method was performed to process all datasets. Data from the sample flow cell (FC2) were referenced first by subtracting data from the reference flow cell (FC1) to correct for bulk refractive index changes, nonspecific binding, injection noise, matrix effects, and baseline drift. Reference-subtracted data (FC2−FC1) were double-referenced with a blank injection of running buffer to account for any systematic drift over the course of the injection. Double-referenced data were fit to a 1:1 binding model for kinetic analysis or steady-state affinity model for thermodynamic analysis. […]
# [3] = Surface plasmon resonance aptamer binding assay, (6S)-folinic acid; settings: SPR, 25° C., selection buffer pH 7.4, 5 mM MgCl2; for ka, (6S)-Folinic Acid / kd, (6S)-Folinic Acid: 1:1 binding model
# Procedure: as §1, §2, §3, §4
# [4] = SPR binding to (6R,S)-5-methyl-5,6,7,8-tetrahydrofolic acid; settings: ligand is mixture of (6R) and (6S) diastereomers; for Kd: read-out: KD, (6R,S)-5-methyl-THF
# [5] = SPR binding to (6R,S)-5-formyl-5,6,7,8-tetrahydropteroic acid; settings: ligand is mixture of (6R) and (6S) diastereomers; for Kd: read-out: KD, (6R,S)-5-formyl-THPteroic Acid
# GFP expression = test: Gene-regulatory activity of ribozyme-based switches in yeast (GFP, flow cytometry); format: cell-based, Saccharomyces cerevisiae; settings: normalized to sTRSV Contl
# Procedure: Plasmid and strain construction. Standard molecular biology cloning techniques were used to construct all plasmids. DNA synthesis was performed by Integrated DNA Technologies (Coralville, Iowa) or the Protein and Nucleic Acid Facility (Stanford, Calif.). All enzymes, including restriction enzymes and ligases, were obtained through New England Biolabs (Ipswich, Mass.). Ligation products were electroporated with a GenePulser XCell (Bio-Rad, Hercules, Calif.) into an E. coli DH10B strain (Invitrogen, Carlsbad, Calif.), where cells harboring cloned plasmids were maintained in Luria-Bertani media containing 50 μg/mL ampicillin (EMD Chemicals, Philadelphia, Pa.). […]
# The two-color screening plasmid pCS1748; single-color plasmids harboring GFP (pCS1585) and mCherry (pCS1749) for use as compensation controls; and no-color plasmid pCS4, containing no fluorescence reporter gene, was used as the negative-control construct. […]
# Cell sorting screen for functional ligand-responsive RNA switches. […] Transformation efficiencies were determined by plating serial dilutions of the transformants, and transformed cells were propagated in SC-URA media for FACS.
# Two-color FACS-based screen. […] GFP was excited at 488 nm and measured with a splitter of 505 nm and bandpass filter of 525/50 nm. mCherry was excited at 532 nm and measured with a splitter of 600 nm and a bandpass filter of 610/20 nm. […]
Molecule,plasma concentration compared to the (6S) diastereomer ([1]; in vivo) [fold],plasma half-life compared to the (6S) diastereomer ([1]; in vivo),concentration that can accumulate in human blood plasma [1],"ka, (6R)-Folinic Acid [2] [M⁻¹ s⁻¹]","kd, (6R)-Folinic Acid [2] [s⁻¹]",Kd [2] [µM],Selectivity [2],"ka, (6S)-Folinic Acid [3] [M⁻¹ s⁻¹]","kd, (6S)-Folinic Acid [3] [s⁻¹]",Kd [3] [µM],"ka, (6R,S)-5-methyl-THF [4] [M⁻¹ s⁻¹]","kd, (6R,S)-5-methyl-THF [4] [s⁻¹]",Kd [4] [µM],"ka, (6R,S)-5-formyl-THPteroic Acid [5] [M⁻¹ s⁻¹]","kd, (6R,S)-5-formyl-THPteroic Acid [5] [s⁻¹]",Kd [5] [µM],normalized GFP expression (GFP expression; absence of theophylline) [%],normalized GFP expression (GFP expression; presence of 5 mM theophylline) [%]
Nc1nc2c(c(=O)[nH]1)N(C=O)[C@H](CNc1ccc(C(=O)N[C@@H](CCC(=O)O)C(=O)O)cc1)CN2 [(6R)-folinic acid],≤ 18,up to 15 fold,up to 77.6 μM,,,,,,,,,,,,,,,
Nc1nc(=O)c2c([nH]1)NC[C@H](CNc1ccc(C(=O)N[C@@H](CCC(=O)O)C(=O)O)cc1)N2C=O [(6S)-folinic acid],,,≤ 7.95 µM,,,,,,,,,,,,,,,
"tFA6-8: truncated (6R)-FA specific RNA aptamer, SEQ ID NO: 21 (UUCCCGUCAGGUACGUUAUAUUCGGGGGA; unmodified RNA)",,,,77900,0.0176,0.225,567,2330,0.297,128,,,,,,,,
"tFA8-4: truncated (6R)-FA specific RNA aptamer, SEQ ID NO: 18 (GCUUGGCGUUGCGUGGUACGUUAUAUUCCGGCCAAGC; unmodified RNA)",,,,269000,0.00515,0.0192,260,21100,0.105,4.98,33500,0.211,6.29,135000,0.00494,0.0366,,
"tFA8-11: truncated (6R)-FA specific RNA aptamer, SEQ ID NO: 20 (UGCAGUGCUUGGUACGUUAUAUUCAGCUGCA; unmodified RNA)",,,,116000,0.00468,0.0405,855,6560,0.227,34.6,14300,0.195,13.6,750000,0.00568,0.0757,,
"tFA8-16: truncated (6R)-FA specific RNA aptamer, SEQ ID NO: 22 (CUCCUUCCGGUGACCUGGACGUUAUUUCCGGCCGAAGGGAG; unmodified RNA)",,,,33000,0.0602,1.82,684,682,0.85,1250,,,,,,,,
"tFA10-7: truncated (6S)-FA specific RNA aptamer, SEQ ID NO: 24 (ACGGCGAAGAGUCAAAGCAUCCCCUGCGAAAGCAGGGCCCGU; unmodified RNA)",,,,,,74.4,515,53600,0.00775,0.144,,,81.8,35200,0.00697,0.198,,
B1,,,,,,,,,,,,,,,,,~10.8,~36.7
B2,,,,94,0.00355,37.7,600,36100,0.00227,0.0628,,,447,53200,0.00633,0.119,,
